From ChEMBL document CHEMBL4393743, “Anti-tumor activity evaluation of novel tubulin and HDAC dual-targeting inhibitors” (Bioorg Med Chem Lett, 2019)

Tests used:
MDA-MB-231 = assay: Antiproliferative activity against human MDA-MB-231 cells assessed as cell growth inhibition incubated for 72 hrs by MTT assay; assay type: functional, cell-based; conditions: MDA-MB-231, 72 h
A549 [1] = assay: Induction of cell cycle arrest in human A549 cells assessed as accumulation at S phase at 0.1 uM incubated for 36 hrs by propidium iodide staining based flow cytometry (reference value: 16.66%); assay type: functional
NCI-H460 = assay: Antiproliferative activity against human NCI-H460 cells assessed as cell growth inhibition incubated for 72 hrs by MTT assay; assay type: functional, cell-based; conditions: NCI-H460, 72 h
SGC-7901 = assay: Antiproliferative activity against human SGC7901 cells assessed as cell growth inhibition incubated for 72 hrs by MTT assay; assay type: functional, cell-based; conditions: SGC-7901, 72 h
Histone deacetylase 1 = Histone deacetylase 1 (Homo sapiens, UniProt Q13547); assay: Inhibition of HDAC1 (unknown origin) using Boc-Lys(Ac)-AMC as substrate incubated for 60 mins by fluorescence assay
MGC-803 = assay: Antiproliferative activity against human MGC803 cells assessed as cell growth inhibition incubated for 72 hrs by MTT assay; assay type: functional, cell-based; conditions: MGC-803, 72 h
A549 [2] = assay: Induction of apoptosis in human A549 cells assessed as live cells at 1 uM incubated for 72 hrs by Annexin V-FITC/propidium iodide-staining based flow cytometric analysis (reference value: 89.8%); assay type: functional
A549 [3] = assay: Induction of apoptosis in human A549 cells assessed as late apoptotic cells at 1 uM incubated for 72 hrs by Annexin V-FITC/propidium iodide-staining based flow cytometric analysis (reference value: 5.69%); assay type: functional
A549 [4] = assay: Induction of apoptosis in human A549 cells incubated for 72 hrs by Annexin V-FITC/propidium iodide-staining based flow cytometric analysis; assay type: functional, cell-based

Histone deacetylase 1, sequence (Q13547 whole entry): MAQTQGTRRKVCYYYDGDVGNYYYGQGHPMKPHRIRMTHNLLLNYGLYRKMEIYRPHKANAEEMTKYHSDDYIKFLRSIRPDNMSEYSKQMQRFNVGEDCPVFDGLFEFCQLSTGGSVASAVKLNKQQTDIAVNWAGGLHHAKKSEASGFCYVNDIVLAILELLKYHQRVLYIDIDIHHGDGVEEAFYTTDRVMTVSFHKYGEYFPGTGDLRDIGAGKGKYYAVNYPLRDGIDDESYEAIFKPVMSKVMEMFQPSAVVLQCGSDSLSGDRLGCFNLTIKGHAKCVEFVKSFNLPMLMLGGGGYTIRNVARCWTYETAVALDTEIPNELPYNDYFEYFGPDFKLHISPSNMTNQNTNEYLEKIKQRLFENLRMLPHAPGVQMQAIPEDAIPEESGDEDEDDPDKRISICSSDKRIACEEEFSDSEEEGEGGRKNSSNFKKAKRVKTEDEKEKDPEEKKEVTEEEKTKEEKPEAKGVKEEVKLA

## COc1ccc(/C=C(\C)C(=O)c2cc(OC)c(OC)c(OC)c2)cc1OCCCC(=O)NO
MDA-MB-231
  IC50: 6950 nM
A549 [1]
  Activity: 22.09%
NCI-H460
  IC50: 2950 nM
SGC-7901
  IC50: 1060 nM
Histone deacetylase 1
  IC50: 996 nM
MGC-803
  IC50: 3660 nM
A549 [2]
  Activity: 58.9%
A549 [3]
  Activity: 26.4%
A549 [4]
  Activity: Dose-dependent effect
